This is an account of results in publication PMC12086673, “Selective inhibition of NikA mediated Ni(II) import in E. coli by the Indium(III)-EDTA complex” (Metallomics: Integrated Biometal Science, 2025).

The experiment concerns the target T1, NikA (Escherichia coli, UniProt P33590).
T1 construct: wild type NikA, purified from periplasm (56 304 Da)
Put plainly: isothermal titration calorimetry, one-site model. Type of experiment: binding.

T1 sequence (P33590 23-524): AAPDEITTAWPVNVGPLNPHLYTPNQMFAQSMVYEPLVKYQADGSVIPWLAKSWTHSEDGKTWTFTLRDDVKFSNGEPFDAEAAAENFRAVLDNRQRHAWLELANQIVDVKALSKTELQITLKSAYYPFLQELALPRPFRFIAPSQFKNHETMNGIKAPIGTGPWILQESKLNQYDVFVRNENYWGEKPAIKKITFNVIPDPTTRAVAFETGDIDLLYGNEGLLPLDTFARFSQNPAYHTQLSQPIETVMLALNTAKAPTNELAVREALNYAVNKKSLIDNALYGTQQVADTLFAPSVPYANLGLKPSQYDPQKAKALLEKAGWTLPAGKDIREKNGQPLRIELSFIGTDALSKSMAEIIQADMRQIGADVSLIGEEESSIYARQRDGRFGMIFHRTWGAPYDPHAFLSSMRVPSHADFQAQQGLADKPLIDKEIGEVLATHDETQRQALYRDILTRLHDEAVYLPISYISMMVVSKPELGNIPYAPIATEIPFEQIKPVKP

Regarding `O=C([O-])CN(CCN(CC(=O)[O-])CC(=O)O)CC(=O)[O-].[Fe+3]` [Fe(III)-EDTA], the Kd (as a rule, the free concentration of one partner at which half of the binding sites on the other are occupied at equilibrium, for simple one-to-one binding) came to 7.4 ± 0.7 µM. Compound `O=C([O-])CN(CCN(CC(=O)[O-])CC(=O)O)CC(=O)[O-].[In+3]` [In(III)-EDTA] registered a Kd of 17.3 ± 3 µM.
